Consider two compounds from patent publication US20050239842A1, “Methods of using and compositions comprising immunomodulatory compounds for the treatment and management of pulmonary hypertension” (priority 2004, published 2005).

For series [1], the system named is production of various cytokines. As to the kind of experiment: In vitro pharmacological activity profile compared with thalidomide. The series is classed as cell-based. Particulars: in vitro studies. The source says: The pharmacological properties of 3-(4-amino-1 -oxo-1,3-dihydro-isoindol-2-yl)-piperidine-2,6-dione, including activity comparisons with thalidomide, have been characterized in in vitro studies. Studies examined the effects of 3-(4-amino-1-oxo-1,3-dihydro-isoindol-2-yl)-piperidine-2,6-dione or thalidomide on the production of various cytokines.
The pharmacological effects of 3-(4-amino-1-oxo-1,3-dihydro-isoindol-2-yl)-piperidine-2,6-dione derive from its action as an inhibitor of cellular response to receptor-initiated trophic signals (e.g., IGF-1, VEGF, […]), and other activities. As a result, 3-(4-amino-1-oxo-1,3-dihydro-isoindol-2-yl)-piperidine-2,6-dione suppresses the generation of inflammatory cytokines, down-regulates adhesion molecules and apoptosis inhibitory proteins (e.g., cFLIP, clAP), promotes sensitivity to death-receptor initiated programmed cell death, and suppresses angiogenic response.

Series [2] concerns patients with PH. The series is described as follows: Clinical Study 2 in PH patients, 12 weeks, placebo controlled. The format is in vivo, human. How it is done:
In one embodiment of the invention, 3-(4-amino-1-oxo-1,3-dihydro-isoindol-2-yl)-piperidine-2,6-dione is administered in a single or divided daily doses in an amount of from about 1 to about 100 mg/day. In another embodiment of the invention, 3-(4-amino-1-oxo-1,3-dihydro-isoindol-2-yl)-piperidine-2,6-dione is administered from about 1 to about 20 mg/day individually. The compound is administered to patients with PH for 12 weeks, who are subsequently evaluated for a decline in walk distance, dyspnea score, functional class, pulmonary hemodynamic response. The first study enrolls 32 patients with PH. Patients are all in modified New York Heart Association functional class III at the onset of the study. Patents are maximally treated and are stable on conventional therapy, including calcium channel antagonists and diuretics. Two thirds of patients receive 5 mg of 3-(4-amino-1-oxo-1,3-dihydro-isoindol-2-yl)-piperidine-2,6-dione for four weeks followed by 10 mg of the compound for eight weeks. One third of patients receive placebo. The primary efficacy endpoint is a 6-minute walk distance. Patients receiving the compound of the invention walk an average of 70 meters farther after 12 weeks while placebo patients have a decline in walk distance. In addition, the treated patients have improvements in dyspnea score and functional class compared with placebo patients. Pulmonary hemodynamic measurements reveal decreases in pulmonary arterial pressure and pulmonary vascular resistance, and increase in cardiac output after 12 weeks of the treatment, compared with worsening of pulmonary hemodynamics in placebo patients. All these changes in treated patients are highly significant compared with placebo.

Series [3] deals with patients with PH. As to the kind of experiment: Expanded clinical study in PH patients, WHO functional class III or IV, 16 weeks. The format is in vivo, human. How it is done: On the basis of the results of the above study 2, the clinical study is expanded with additional 213 PH patients for at least 16 weeks. The study is conducted with patients with PH, WHO functional class III or IV. Two hundred thirteen patients are randomized to receive either 5 mg bid or 10 mg bid of 3-(4-amino-1-oxo-1,3-dihydro-isoindol-2-yl)-piperidine-2,6-dione or placebo in a 1:1:1 ratio. The primary endpoint, a 6-minute walk distance, is evaluated at 16 weeks. The treated patients walk 36.4 meters further at 16 weeks compared to a 7.8 meter reduction in walk distance in the placebo group, for a treatment effect of 44.2 meters. Clinical worsening, defined by death, premature withdrawal from study, hospitalization for worsening of PH or institution of epoprostenol, occur in 37% of placebo-treated patients, compared with 11% of the patients treated with the compound of the invention.

For series [4] the following is noted: cited from earlier work.

SMILES strings stand for the structures.

Consider `Nc1cccc2c1CN(C1CCC(=O)NC1=O)C2=O` (stereo not shown) [3-(4-amino-1-oxo-1,3-dihydro-isoindol-2-yl)-piperidine-2,6-dione], for which the “potency relative to thalidomide” value in series [1] is 50 to 2,000 times. Further, in the series with patients with PH [2] (12 weeks, compared with placebo patients), the “dyspnea score and functional class” value is listed as “improvements”. Further, in the series on patients with PH [2] (after 12 weeks of treatment), the cardiac output result is recorded as “increase”; the “pulmonary arterial pressure and pulmonary vascular resistance” value is listed as “decreases”. Besides, the “6-minute walk distance, average increase” value with patients with PH [2] (after 12 weeks, 5 mg for four weeks then 10 mg for eight weeks) is 70 meters. In the series with patients with PH [3] (at 16 weeks), the “treatment effect on 6-minute walk distance versus placebo” value was determined as 44.2 meters. In addition, the “6-minute walk distance, increase” value with patients with PH [3] (at 16 weeks, 5 mg bid or 10 mg bid) is 36.4 meters. Besides, the “clinical worsening (death, premature withdrawal, hospitalization for worsening of PH or institution of epoprostenol), share of patients” value in the series with patients with PH [3] (treated patients) stood at 11%. For the same compound, the functional class result with patients with PH [3] (treated versus placebo patients) is listed as “improved significantly more”.
For `Nc1cccc2c1CN(C1CCC(=O)NC1=O)C2=O` (stereo not shown) [Form E, 3-(4-amino-1-oxo-1,3 dihydro-isoindol-2-yl)-piperidene-2,6-dione], in series [4], the “stability among forms in aqueous solvent systems” value was “most stable form”.
